Experiment [1] relates to JGA (renin-producing JG cells). In words: In vitro microperfused afferent arteriole-glomerulus (JGA) renin release, quinacrine fluorescence confocal imaging. The arrangement: species or system rabbit. Particulars: for effect on high glucose level-induced renin release and afferent arteriole diameter increase (FIG. 1C): high glucose 25.5 mM; for renin release (change in quinacrine fluorescence intensity [F0-F] normalized to baseline [F0]): agent alone in afferent arteriole perfusate, within 30 minutes, glucose 25.5 mM, equimolar mannitol, α-ketoglutarate 5 mM, otherwise normal glucose 5.5 mM; for EC50: dose-response, FIG. 2C. As to the method: (A and B) Real-time confocal fluorescence imaging of renin content (quinacrine, light gray) and vascular diameter (cell membranes are labeled with R-18, dark gray) in the in vitro microperfused terminal afferent arteriole (AA) with attached glomerulus (G) freshly isolated from rabbit kidney. […] Scale bar: 20 μm.
(A) Overview of the TCA cycle and sites of inhibition with fluorocitrate (F: 100 μM: blocks aconitase in step 2) and malonate (MAL; 1 mM; blocks succinate dehydrogenase in step 6).
A superficial afferent arteriole with its glomerulus was microdissected from freshly harvested kidney slices. The afferent arteriole was cannulated and perfused using a method similar to those described previously (37). Briefly, dissection media were prepared from DMEM mixture F-12 (Sigma-Aldrich). Fetal bovine serum (Hyclone) was added at a final concentration of 3%. Vessel perfusion and bath fluid was a modified Krebs-Ringer-HCO3 buffer containing 115 mM NaCl, 25 mM NaHCO3, 0.96 mM NaH2PO4, 0.24 mM Na2HPO4, 5 mM KCl, 1.2 mM MgSO4, 2 mM CaCl2, 5.5 mM d-glucose and 100 μM l-arginine. The solutions were aerated with 95% O2 and 5% CO2 for 45 minutes, and their pH was adjusted to 7.4. Each preparation was transferred to a thermoregulated Lucite chamber mounted on the Leica inverted microscope. The preparation was kept in the dissection solution, and also, temperature was kept at 4° C. until cannulation of the arteriole was completed and then was gradually raised to 37° C. for the remainder of the experiment. In some experiments, the endothelium was mechanically removed from the vessel wall with the help of the perfusion pipette and by perfusing the control solution under the endothelium (between the endothelium and smooth muscle). […] The bath was continuously aerated with 95% O2 and 5% CO2. The acidotropic fluorophore quinacrine (Sigma-Aldrich), which is an intravital fluorescent dye selective for dense-core secretory granules, was used for labeling the renin granules (12, 13, 15). The membrane staining octadecyl rhodamine B chloride R18 and the nuclear stain Hoechst 33342 were used to visualize the glomerulus with its attached afferent arteriole. For ratiometric Ca2+ imaging, the fluo-4/fura red pair was used and calibrated as described before (37). DAF-FM was used to monitor changes in NO production as described (38). All fluorophores were from Invitrogen.

Experiment [2] relates to GENCs. In words: GENC [Ca2+]i, fura-2 spectrofluorometry. The format is cell-based, mouse. Particulars: for GENC intracellular Ca2+ [Ca2+]i level: high glucose 25.5 mM, succinate 5 mM, malonate 1 mM, fluorocitrate 100 p.M, normal glucose baseline 133±14 nM.
The subject of experiment [3] is GENCs. Particulars: read-out: EC50, PGE2 release from GENCs; dose-response, FIG. 6D.
Description: Specially engineered biosensor cells, HEK293 cells, expressing the Ca^2+-coupled PGE2 receptor EP1 were loaded with fluo-4 and positioned next to GENCs in culture. […] Normalized changes in HEK293-EP1 biosensor cell fluo-4 intensity are shown and served as an index of PGE2 release. n=6 for each dose.
A further experiment concerns HEK cells. To be noted: saturating doses of succinate. The text has this: (§1) FIG. 5: Localization of GPR91 in GENCs. […] C, control mix with no cDNA; WK, whole kidney from WT GPR91^+/+ or KO GPR91^−/− mice. […] JGC, renin-producing JG cells. (B-E) Localization of GPR91 protein in rat kidney with immunohistochemistry. […] One region of the glomerulus (indicated by a rectangle) is magnified in C and D for high-resolution colocalization studies. […] DIC background is merged with fluorescence to show glomerular morphology. (E) Negative control using no GPR91 primary antibody. Nuclei are medium gray. Scale bar: 10 μm (B-E).

In the next experiment the test system is JG cells. To be noted: saturating doses of succinate.
Description: as §1

The subject of another experiment is VSMCs. Particulars: saturating doses of succinate.
Description: as §1

The test system of the next experiment is vascular endothelium. In words: Endothelial [Ca2+]i (fluo-4/fura red) and NO production (DAF-FM) in microperfused afferent arteriole-glomerulus. Particulars: glucose 5.5 to 25.5 mM or succinate 5 mM in arteriolar perfusate. The arrangement: species or system mouse. How it is done:
FIG. 6: GPR91 signaling in the vascular endothelium. […] Scale bar: 20 μm. […] KO (^−/−); n=6 each. […] A superficial afferent arteriole with its glomerulus was microdissected from freshly harvested kidney slices. The afferent arteriole was cannulated and perfused using a method similar to those described previously (37). Briefly, dissection media were prepared from DMEM mixture F-12 (Sigma-Aldrich). […] Vessel perfusion and bath fluid was a modified Krebs-Ringer-HCO3 buffer containing 115 mM NaCl, 25 mM NaHCO3, 0.96 mM NaH2PO4, 0.24 mM Na2HPO4, 5 mM KCl, 1.2 mM MgSO4, 2 mM CaCl2, 5.5 mM d-glucose and 100 μM l-arginine. […] Each preparation was transferred to a thermoregulated Lucite chamber mounted on the Leica inverted microscope. The preparation was kept in the dissection solution, and also, temperature was kept at 4° C. until cannulation of the arteriole was completed and then was gradually raised to 37° C. for the remainder of the experiment. In some experiments, the endothelium was mechanically removed from the vessel wall with the help of the perfusion pipette and by perfusing the control solution under the endothelium (between the endothelium and smooth muscle). […] The acidotropic fluorophore quinacrine (Sigma-Aldrich), which is an intravital fluorescent dye selective for dense-core secretory granules, was used for labeling the renin granules (12, 13, 15). […]

The mark [4] stands for this setting: L-NAME 1 mM, indomethacin 50 μM.
[5] abbreviates: agent combined with high glucose 25.5 mM, succinate 5 mM, malonate 1 mM, fluorocitrate 100 μM, L-NAME 1 mM, indomethacin 50 μM.
Where [6] appears, read: succinate 5 mM, malonate 1 mM, fluorocitrate 100 μM.

Like-named read-outs stand apart in the source and are kept apart here.

Consider `COc1ccc2c(c1)c(CC(=O)O)c(C)n2C(=O)c1ccc(Cl)cc1` [indomethacin], for which the “effect on high glucose level-induced renin release and afferent arteriole diameter increase (FIG. 1C)” value in experiment [1] (setting [4]) is reported as “inhibited the effects of high glucose level”. Besides, in experiment [1] (setting [5]), the “renin release (change in quinacrine fluorescence intensity normalized to baseline)” value is listed as 13±2 Δ%.
As to `O=C(O)CCC(=O)O` [succinate], the “[Ca2+]i response in GENCs with GPR91 silenced” value in the experiment with GENCs [2] (GPR91 siRNA) was “no [Ca2+]i response”. Also, in the experiment with GENCs [2], the “GENC intracellular Ca2+ [Ca2+]i level” value is 549 ± 29 nM. The EC50 in the experiment on GENCs [2] (succinate added to the superfusate, FIG. 5G, read-out: EC50, GENC Ca2+ signal) turned out to be 69 µM; in the experiment with GENCs [3], 214 µM; in experiment [1] it was 335 µM. In addition, the “[Ca2+]i elevation” value in the experiment with HEK cells, in the experiment on JG cells and with VSMCs was “did not cause [Ca2+]i elevations” in each case. Besides, the “endothelial NO production” value with vascular endothelium is on record as “significant elevations”. Further, in the experiment with vascular endothelium, the “endothelial [Ca2+]i” value was “significant elevations”. Further, in experiment [1] (setting [6]), the “renin release (change in quinacrine fluorescence intensity [F0-F] normalized to baseline [F0])” value is 73±2 Δ%. For the same molecule, the “renin release (change in quinacrine fluorescence intensity normalized to baseline)” value in experiment [1] (setting [5]) was 56±3 Δ%.
As to `O=C(O)CCC(=O)C(=O)O` [α-ketoglutarate], in experiment [1] (setting [6]), the “renin release (change in quinacrine fluorescence intensity [F0-F] normalized to baseline [F0])” value is “no effect”.
As to `O=C(O)CC(=O)O` [malonate], the “GENC intracellular Ca2+ [Ca2+]i level” value with GENCs [2] came to 377 ± 22 nM. Moreover, the “renin release (change in quinacrine fluorescence intensity [F0-F] normalized to baseline [F0])” value in experiment [1] (setting [6]) is recorded as 54±7 Δ%. Further, the “renin release (change in quinacrine fluorescence intensity normalized to baseline)” value was 77±2 Δ% in experiment [1] (setting [5]) and 83±4 Δ% in experiment [1] (malonate 1 mM plus succinate 5 mM). The EC50 in experiment [1] stood at 367 µM.
In the case of `COC(=O)[C@@H](N)CCCNC(=N)N[N+](=O)[O-]` [L-NAME], in experiment [1] (setting [4]), the “effect on high glucose level-induced renin release and afferent arteriole diameter increase (FIG. 1C)” value is reported as “inhibited the effects of high glucose level”. Besides, the “renin release (change in quinacrine fluorescence intensity normalized to baseline)” value in experiment [1] (setting [5]) is 14±6 Δ%.
For the molecule `OC[C@@H](O)[C@@H](O)[C@H](O)[C@H](O)CO` [mannitol], the “renin release (change in quinacrine fluorescence intensity [F0-F] normalized to baseline [F0])” value in experiment [1] (setting [6]) is on record as 19±4 Δ%.
For `O=C(O)CC(O)(C(=O)O)C(F)C(=O)O` (centres unmarked) [fluorocitrate], in the experiment with GENCs [2], the “GENC intracellular Ca2+ [Ca2+]i level” value is 143 ± 11 nM. Also, the “renin release (change in quinacrine fluorescence intensity [F0-F] normalized to baseline [F0])” value in experiment [1] (setting [6]) is on record as 11±2 Δ%. For the same molecule, in experiment [1] (setting [5]), the “renin release (change in quinacrine fluorescence intensity normalized to baseline)” value is recorded as 16±2 Δ%.

By EC50 is commonly meant the midpoint of the concentration-response curve.

These data come from patent US8652771B2, “Measurement of succinate in urine samples as a biomarker of kidney damage in diabetic subjects” (University of Souther California, priority 2008, dated 2014).
